Columns and labels:
[1] = system: murine splenocytes; assay: AAV8-dependent cytokine and chemokine release by murine splenocytes; format: cell-based, C57BL/6 mouse; settings: dasatinib 100 nM, 50 nM or 12.5 nM; 24 hrs, AAV8-hSeap MOI 1E5
Method: Splenocytes were isolated from a C57/B16 mouse and incubated for 24 hrs with AAV8-hSeap at MOI 1E5 in the presence or absence of dasatinib (100 nM, 50 nM or 12.5 nM). Cytokines and chemokines were measured in the culture supernatants. LPS (positive) and PBS (negative) controls are shown on the graphs. Means+/−SD (triplicates). Dashed line: Lower limit of quantification.
To investigate the mechanism of dasatinib-mediated inhibition of the humoral response to AAV8 observed in mice (Examples 1 and 5), we looked whether the rapid production of cytokines and chemokines by immune cells was affected by the dasatinib treatment. Total splenocytes from a C57BL/6 mouse were cultured for 24 hrs in the presence or absence of dasatinib at different concentrations. Cytokines and chemokines secreted in the culture supernatants were analyzed using ProcartaPlex Immunoassays (Luminex).

[2] = system: human whole blood; assay: AAV8-dependent cytokine release in human whole blood from four healthy donors with IVIG; format: cell-based
Method: FIGS. 6A-6C: Dasatinib inhibits AA V8-dependent cytokine release in human whole blood. Fresh whole blood from 4 healthy donors was incubated with either PBS or AAV8-hSEAP (5e11 vg/mL) with IVIG (PRIVIGEN, 1/100) for 24 hrs. Dasatinib was added at the concentration of 50 nM 1 hr before addition of AAV8. In some of the culture wells, a second dose of dasatinib was added 9 hrs after AAV8 treatment (dasa 50 nM 2x). After 24 hrs, the plasma was collected and cytokines measured using Quanterix kits. Depicted are the cytokine fold increases over PBS for IFN-γ and TNF-α (FIG. 6A), IL-6 and IL-1x (FIG. 6B), and IL-2 and IL-1β (FIG. 6C), with the percentages of inhibition in the presence of dasatinib (means +/−SEM).
To study in more detail the effects of dasatinib on AAV-dependent cytokine release, another whole blood assay was performed. Whole blood from four healthy donors was incubated with AAV8-hSEAP (5e11 vg/ml) for 24 hrs. Intravenous Immunoglobulin (IVIG, Privigen) which contains anti-AAV antibodies was added to the blood samples. Dasatinib was added at 50 nM 1 hr before the AAV treatment, PBS was used as a negative control. As the half-life of dasatinib is very short (Lindauer M et al, Recent Results Cancer Res. 2010;184:83-102), a second dasatinib addition was performed 9 hrs after the AAV treatment. After 24 hrs, plasma supernatants were collected and cytokines measured using Quanterix kits. […] Inhibition of AAV-mediated cytokine release likely contributes to the effect of dasatinib on antibody formation.

[3] = system: mice; assay: anti-AAV8 IgM and IgG titers, 1-week vs 2-week dasatinib treatment in mice; format: in vivo
Method: FIG. 7: In vivo study to assess the impact of prolonging the dasatinib treatment. All mouse groups, except Group 1, were immunized on day 1 with an i.v. injection of AAV8-hSeap (1e12 vg/kg). Four groups received an i.v. injection of AAV8-FactorIX (3e13 vg/kg) on day 43. Concomitantly to the first AAV administration, Groups 3 and 4 were treated with dasatinib for either 1 or 2 weeks, respectively. Dasatinib was administered at the dose of 50 mg/kg per oral gavage, twice per day and starting 1 hr before the first AAV treatment.
(§1) FIGS. 8A-8B: Prolongation of dasatinib treatment from 1 week to 2 weeks improves the inhibition of IgM formation to AAV8. In the experiment described in FIG. 8A and FIG. 8B anti-AAV8 IgM titers (median+/−SD) were measured in each mouse group from day 0 (before AAV8-hSeap administration) to day 64, as described for FIGS. 2A-2C. Each circle represents an individual IgM titer.
as §1, with “9A-9B:” for “8A-8B:”, “IgG” for “IgM”, “9A” for “8A”, “9B,” for “8B”, “3A-3C.” for “2A-2C.”
In the experiment described in Example 1, despite the strong inhibition of anti-AAV antibody formation observed in most of the mice, 4 out of 10 dasatinib-treated animals started to develop anti-AAV8 IgG before re-dosing (FIG. 3C, days 15-21). The presence of residual AAV8 particles in the circulation and in the tissues after the cessation of the dasatinib treatment might lead to this antibody formation. […] To this purpose, the same protocol was applied as in Example 1, but using either a 1-week or a 2-week dasatinib treatment. In addition, re-dosing was performed at a later time point (day 43 instead of day 22) to be able to observe potential antibody formation after the cessation of dasatinib treatment. This protocol is depicted in FIG. 7.
Circulating IgM and IgG directed against the AAV8 capsid were titrated in the serum samples (FIGS. 8A-8B and 9A-9B). The peaks of anti-AAV8 IgM were observed one week after first rAAV8 dosing, on day 8 for the immunized control Group 2 and on day 50 for the non-immunized control Group 1 (10/10 mice above the threshold) (FIGS. 8A-8B). […] Inhibition of IgM production was stronger in Group 4, treated with dasatinib for 2 weeks.

[4] = dasatinib 50 nM, 24 hrs, AAV8-hSEAP 5e11 vg/ml with IVIG
[5] = Group 4, dasatinib for 2 weeks, day 42

Structure (SMILES): Cc1nc(Nc2ncc(C(=O)Nc3c(C)cccc3Cl)s2)cc(N2CCN(CCO)CC2)n1 [dasatinib, N-(2-chloro-6-methylphenyl)-2-[[6-[4-(2-hydroxyethyl)-1-piperazinyl]-2-methyl-4-pyrimidinyl]amino]-5-thiazole carboxamide monohydrate]
- IL-6 in culture supernatant [1]: dose-dependent decreases
- IP-10/CXCL10 in culture supernatant [1]: dose-dependent decreases
- MCP-1 in culture supernatant [1]: dose-dependent decreases
- MCP-3 in culture supernatant [1]: dose-dependent decreases
- MIP-1α in culture supernatant [1]: dose-dependent decreases
- MIP-1β in culture supernatant [1]: dose-dependent decreases
- MIP-2α in culture supernatant [1]: dose-dependent decreases
- TNF-α in culture supernatant [1]: dose-dependent decreases
- inhibition of cytokine production with second dasatinib addition versus single addition ([2]; dasatinib 50 nM added both 1 hr before and 9 hrs after AAV treatment): more pronounced
- production of IFN-Y [2, 4]: inhibited
- production of IL-1β [2, 4]: inhibited
- production of IL-2 [2, 4]: inhibited
- production of IL-6 [2, 4]: inhibited
- production of IL-la [2, 4]: inhibited
- production of TNF-α [2, 4]: inhibited
- anti-AAV8 IgM titers until administration of the second rAAV8 ([3]; Group 3, dasatinib 50 mg/kg oral twice per day for 1 week): remained low to negative
- mice with negative anti-AAV8 IgG titers ([3]; Group 3, dasatinib for 1 week, day 42): 3/15
- mice with positive IgM titers to AAV8 ([3]; Group 3, dasatinib for 1 week, day 42 before AAV8 re-dosing): Four out of 15
- inhibition of IgM production compared with 1-week treatment ([3]; Group 4, dasatinib for 2 weeks): stronger
- mice with IgG titers below the positivity threshold [3, 5]: 5/15
- mice with positive IgM titer [3, 5]: one
- median anti-AAV8 IgG titer ([3]; Group 4, dasatinib for 2 weeks, day 42, compared with 1-week Group 3): much lower than in Group 3
- anti-AAV8 IgG titers after rAAV8 re-administration ([3]; day 64, 3 weeks after rAAV8 re-administration): comparable in all mouse groups

Source: US20260000670A1 (priority 2022, published 2026)
